biological target: T1, STING (Homo sapiens, UniProt Q86WV6, G230A/H232R/R293Q/R71H); experiment: Reporter gene expression assay in THP1-Dual cells (IRF pathway Lucia luciferase, 2',3'-cGAMP stimulation); type: cell-based; settings: 10 min preincubation, 5 μM 2',3'-cGAMP, 20 hr, IRF reporter QUANTI-Luc, read-out: THP-1 (HAQ) Activity
T1 construct: host or cells: THP1-Dual cells (human THP-1 monocyte line with Lucia/SEAP reporters)
How it was run: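 THP1-Dual cells preincubated 10 min with compound, then stimulated with 5 μM 2′,3′-cGAMP for 20 hr. Secreted Lucia luciferase (IRF reporter) measured in supernatant by luminescence; IC50 reported as ranges (A ≤1 μM, B >1–≤10 μM, C >10 μM).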

T1 sequence (Q86WV6 whole entry R71H/G230A/H232R/R293Q): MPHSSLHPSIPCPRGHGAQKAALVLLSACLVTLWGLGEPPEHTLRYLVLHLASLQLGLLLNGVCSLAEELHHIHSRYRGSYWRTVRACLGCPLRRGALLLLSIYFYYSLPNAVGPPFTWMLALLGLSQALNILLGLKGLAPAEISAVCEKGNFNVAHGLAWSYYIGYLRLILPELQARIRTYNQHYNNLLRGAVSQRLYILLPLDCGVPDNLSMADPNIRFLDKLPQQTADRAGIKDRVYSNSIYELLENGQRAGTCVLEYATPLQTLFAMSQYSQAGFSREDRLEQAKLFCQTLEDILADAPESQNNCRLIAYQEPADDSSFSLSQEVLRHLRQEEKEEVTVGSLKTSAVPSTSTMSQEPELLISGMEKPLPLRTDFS

`O=S(=O)(Nc1ccc2c(c1)N(Cc1ccccc1)CCO2)Nc1ccc2cc[nH]c2c1` [Example 176, 4-Benzyl-N-(1H-indol-6-ylsulfamoyl)-2,3-dihydro-1,4-benzoxazin-6-amine] and `O=S(=O)(Nc1ccc2c(c1)OCCN2c1ccccc1)Nc1ccc2cc[nH]c2c1` [Example 175, N-1H-indol-6-yl-N′-(4-phenyl-3,4-dihydro-2H-1,4-benzoxazin-7-yl)sulfuric diamide] fall in the same range of IC50: 1 to 10 µM for the first, 1 to 10 µM for the second.

Compared with `NCC1COc2cc(NC(=O)Nc3ccc4cc[nH]c4c3)ccc2N1Cc1ccccc1` (stereo not shown) [Example 187, 1-(3-(aminomethyl)-4-benzyl-3,4-dihydro-2H-benzo[b][1,4]oxazin-7-yl)-3-(1H-indol-6-yl)urea], `NCC1COc2ccc(NC(=O)Nc3ccc4cc[nH]c4c3)cc2N1Cc1ccccc1` (stereo not shown) [Example 82] is higher in IC50: 1 to 10 µM for the first, over 10 µM for the second. The first is the more potent here.

`O=C(Nc1ccc2c(c1)N(Cc1ccccc1)C(=O)CS2)c1ccc2cc[nH]c2c1` [Example 55, N-(4-benzyl-3-oxo-3,4-dihydro-2H-benzo[b][1,4]thiazin-6-yl)-1H-indole-6-carboxamide] and `O=C(Cc1ccc2cc[nH]c2c1)Nc1ccc2c(c1)N(Cc1ccccc1)C(=O)CS2` [Example 47, N-(4-Benzyl-3-oxo-3,4-dihydro-2H-benzo[b][1,4]thiazin-6-yl)-2-(1H-indol-6-yl)acetamide] fall in the same range of IC50: 1 to 10 µM for the first, 1 to 10 µM for the second.

First: C[C@H]1c2ccc(NC(=O)Nc3ccc(F)cc3)cc2N(Cc2ccccc2)C(=O)N1C [Example 38, (S)-1-(1-benzyl-3,4-dimethyl-2-oxo-1,2,3,4-tetrahydro-quinazolin-7-yl)-3-(4-fluorophenyl)urea]
Second: CN1Cc2ccc(NC(=O)Nc3ccc(F)cc3)cc2N(Cc2ccccc2)C1=O [Example 39, 1-(1-Benzyl-3-methyl-2-oxo-1,2,3,4-tetrahydroquinazolin-7-yl)-3-(4-fluorophenyl)urea]
The IC50 of the first is higher: over 10 µM for the first, 1 to 10 µM for the second. The second is the more potent here.

`O=C(Nc1ccc2c(c1)OCC(=O)N2CC1CCCO1)Nc1ccc2cc[nH]c2c1` (stereo not shown) [Example 146, 1-(1H-indol-6-yl)-3-(3-oxo-4-((tetrahydro-furan-2-yl)methyl)-3,4-dihydro-2H-benzo[b][1, 4]oxazin-7-yl)urea] and `O=C(Nc1ccc2c(c1)OCC(=O)N2CC1COc2ccccc2O1)Nc1ccc2cc[nH]c2c1` (stereo not shown) [Example 97, 1-(4-((2,3-dihydrobenzo[b][1,4]dioxin-2-yl)methyl)-3-oxo-3,4-dihydro-2H-benzo[b][1,4]oxazin-7-yl)-3-(1H-indol-6-yl)urea] cannot be ordered by IC50: 1 to 10 µM for the first, at most 1 µM for the second.

`CC(C)(C)c1nc(CN2C(=O)COc3cc(NC(=O)Nc4ccc5cc[nH]c5c4)ccc32)no1` [Example 134, l-(4-((5-(tert-butyl)-1,2,4-oxadiazol-3-yl)methyl)-3-oxo-3,4-dihydro-2H-benzo[b][, 4]oxazin-7-yl)-3-(1H-indol-6-yl)urea] and `O=C(Nc1ccc2c(c1)OCC(=O)N2Cc1ccc2nonc2c1)Nc1ccc2cc[nH]c2c1` [Example 129, l-(4-(benzo[c][1,2,5]oxadiazol-5-ylmethyl)-3-oxo-3,4-dihydro-2H-benzo[b][1,4]oxazin-7-yl)-3-(1H-indol-6-yl)urea] cannot be ordered by IC50: 1 to 10 µM for the first, at most 1 µM for the second.

Compared with `O=C(Nc1ccc2c(c1)SCCN2Cc1ccccc1)Nc1ccc2cc[nH]c2c1` [Example 63, 1-(4-benzyl-3,4-dihydro-2H-benzo[b][1, 4]thiazin-7-yl)-3-(1H-indol-6-yl)urea], `O=C(Nc1ccc2c(c1)N(c1ccccc1)CCS2)Nc1ccc2cc[nH]c2c1` [Example 72, 3-(1H-Indol-6-yl)-3-(4-phenyl-3,4-dihydro-2H-benzo[b][1,4]thiazin-6-yl)urea] is lower in IC50: over 10 µM for the first, at most 1 µM for the second.

`CNC(=O)C(c1ccccc1)N1CCOc2ccc(NC(=O)Nc3ccc4cc[nH]c4c3)cc21` (stereo not shown) [Example 189, 2-(6-(3-(1H-indol-6-yl)ureido)-2,3-dihydro-4H-benzo[b][1,4]oxazin-4-yl)-N-methyl-2-phenylacetamide] and `N#CC1COc2ccc(NC(=O)Nc3ccc4cc[nH]c4c3)cc2N1Cc1ccccc1` (stereo not shown) [Example 81, 1-(4-Benzyl-3-cyano-3,4-dihydro-2H-benzo[b][1,4]oxazin-6-yl)-3-(1H-indol-6-yl)urea] fall in the same range of IC50: 1 to 10 µM for the first, 1 to 10 µM for the second.

`N#Cc1cccc(CN2C(=O)COc3cc(NC(=O)Nc4ccc5cc[nH]c5c4)ccc32)c1` [Example 116, l-(4-(3-cyanobenzyl)-3-oxo-3,4-dihydro-2H-benzo[b][1, 4]oxazin-7-yl)-3-(1H-indol-6-yl)urea] and `O=C(Nc1ccc2c(c1)OCC(=O)N2Cc1cccnc1)Nc1ccc2cc[nH]c2c1` [Example 148, 1-(1H-indol-6-yl)-3-(3-oxo-4-(pyridin-3-ylmethyl)-3,4-dihydro-2H-benzo [b][1, 4]oxazin-7-yl)urea] fall in the same range of IC50: 1 to 10 µM for the first, 1 to 10 µM for the second.

`COC(=O)c1ccccc1CN1C(=O)COc2cc(NC(=O)Nc3ccc4cc[nH]c4c3)ccc21` [Example 140, methyl 2-((7-(3-(1H-indol-6-yl)ureido)-3-oxo-2,3-dihydro-4H-benzo[b][1, 4]oxazin-4-yl)methyl) benzoate] and `O=C(Nc1ccc2c(c1)OCC(=O)N2Cc1cccc(F)c1F)Nc1ccc2cc[nH]c2c1` [Example 95, 1-(4-(2,3-difluorobenzyl)-3-oxo-3,4-dihydro-2H-benzo[b][1, 4]oxazin-7-yl)-3-(1H-indol-6-yl)urea] cannot be ordered by IC50: 1 to 10 µM for the first, at most 1 µM for the second.

`O=C(Nc1ccc2c(c1)N(Cc1ccccc1)CCS2)Nc1c[nH]c2ccccc12` [Example 64, 1-(4-benzyl-3,4-dihydro-2H-benzo[b][1, 4]thiazin-6-yl)-3-(1H-indol-3-yl)urea] and `O=C(Nc1ccc2c(c1)N(Cc1ccccc1)C(=O)CS2)Nc1ccc2nc[nH]c2c1` [Example 30, 1-(1H-benzo[d]imidazol-6-yl)-3-(4-benzyl-3-oxo-3,4-dihydro-2H-benzo[b][1, 4]thiazin-6-yl)urea] fall in the same range of IC50: 1 to 10 µM for the first, 1 to 10 µM for the second.

`O=C(Nc1ccc2c(c1)CCCC2)Nc1ccc2c(c1)OCC(=O)N2Cc1ccccc1` [Example 133, 1-(4-benzyl-3-oxo-3,4-dihydro-2H-benzo[b][1, 4]oxazin-7-yl)-3-(5,6,7,8-tetrahydro-naphthalen-2-yl)urea] and `O=C(Nc1ccc2c(c1)OCCO2)Nc1ccc2c(c1)N(Cc1ccccc1)C(=O)CS2` [Example 23, 1-(4-benzyl-3-oxo-3,4-dihydro-2H-benzo[b] [1,4]thiazin-6-yl)-3-(2,3-dihydrobenzo [b][1,4]dioxin-6-yl)urea] fall in the same range of IC50: 1 to 10 µM for the first, 1 to 10 µM for the second.

Compared with `O=C(Nc1ccc2c(c1)OCC(=O)N2Cc1ccncc1)Nc1ccc2cc[nH]c2c1` [Example 147, 1-(iH-indol-6-yl)-3-(3-oxo-4-(pyridin-4-ylmethyl)-3,4-dihydro-2H-benzo[b][1, 4]oxazin-7-yl)urea], `O=C(Nc1ccc2c(c1)OCC(=O)N2Cc1ccc(-n2cncn2)cc1)Nc1ccc2cc[nH]c2c1` [Example 128, 1-(4-(4-(1H-1,2,4-triazol-1-yl)benzyl)-3-oxo-3,4-dihydro-2H-benzo[b][1, 4]oxazin-7-yl)-3-(1H-indol-6-yl)urea] is higher in IC50: 1 to 10 µM for the first, over 10 µM for the second.

Compared with `O=C(Nc1ccc(F)cc1)Nc1ccc2c(c1)N(Cc1ccncc1)C(=O)CS2` [Example 17, l-(4-fluorophenyl)-3-(3-oxo-4-(pyridin-4-ylmethyl)-3,4-dihydro-2H-benzo[b][1, 4]thiazin-6-yl)urea], `O=C(Nc1ccncc1)Nc1ccc2c(c1)N(Cc1ccccc1)C(=O)CS2` [Example 6, 1-(4-benzyl-3-oxo-3,4-dihydro-2H-benzo[b][1, 4]thiazin-6-yl)-3-(pyridin-4-yl)urea] is lower in IC50: over 10 µM for the first, 1 to 10 µM for the second.

`O=C1CSc2ccc(OCCc3ccc(F)cc3)cc2N1Cc1c(F)cccc1Cl` [Example 41, 4-(2-Chloro-6-fluorobenzyl)-6-(4-fluorophenethoxy)-2H-benzo[b][1,4]thiazin-3(4H)-one] and `O=C1CSc2ccc(-c3ncc(-c4ccccc4)[nH]3)cc2N1Cc1c(F)cccc1Cl` [Example 43, 4-(2-Chloro-6-fluorobenzyl)-6-(t-phenyl-1H-imidazol-2-yl)-2H-benzo[b][1,4]thiazin-3(4H)-one] fall in the same range of IC50: 1 to 10 µM for the first, 1 to 10 µM for the second.

First: O=C(Nc1ccc2c(c1)OCC(=O)N2Cc1ccc(C(=O)O)cn1)Nc1ccc2cc[nH]c2c1 [Example 118, 6-((7-(3-(1H-indol-6-yl)ureido)-3-oxo-2,3-dihydro-4H-benzo[b][1,4]oxazin-4-yl)methyl)nicotinic acid]
Second: O=C(Nc1ccc2c(c1)OCC(=O)N2Cc1ccc(C(F)(F)F)nc1)Nc1ccc2cc[nH]c2c1 [Example 104, 1-(1H-indol-6-yl)-3-(3-oxo-4-((6-(trifluoromethyl)pyridin-3-yl)methyl)-3,4-dihydro-2H-benzo[b][1,4]oxazin-7-yl)urea]
The IC50 of the first is higher: over 10 µM for the first, at most 1 µM for the second. The second is the more potent here.

First: O=C1CCc2ccc(NC(=O)Nc3ccc4c(c3)N(Cc3ccccc3)C(=O)CS4)cc2N1 [Example 29, 1-(4-benzyl-3-oxo-3,4-dihydro-2H-benzo[b][1, 4]thiazin-6-yl)-3-(2-oxo-1,2,3,4-tetrahydro-quinolin-7-yl)urea]
Second: O=C1CSc2ccc(NC(=O)Nc3ccc4cc[nH]c4c3)cc2N1 [Example 195, 1-(1H-indol-6-yl)-3-(3-oxo-3,4-dihydro-2H-benzo[b][1, 4]thiazin-6-yl)urea]
The IC50 of the first is lower: 1 to 10 µM for the first, over 10 µM for the second. The first is the more potent here.

`COc1ccc(F)c(CN2C(=O)CSc3cc(NC(=O)Nc4ccc5cc[nH]c5c4)ccc32)c1Cl` [Example 124, l-(4-(2-chloro-6-fluoro-3-methoxybenzyl)-3-oxo-3,4-dihydro-2H-benzo[b][1, 4]thiazin-7-yl)-3-(1H-indol-6-yl)urea] and `O=C(Nc1ccc2c(c1)OCC(=O)N2Cc1ccccc1-c1ccccc1)Nc1ccc2cc[nH]c2c1` [Example 101, 1-(4-([1,1′-biphenyl]-2-ylmethyl)-3-oxo-3,4-dihydro-2H-benzo[b][1,4]oxazin-7-yl)-3-(1H-indol-6-yl)urea] cannot be ordered by IC50: at most 1 µM for the first, at most 1 µM for the second.

With `O=C1CSc2ccc(-c3n[nH]c(-c4ccccc4)n3)cc2N1Cc1c(F)cccc1Cl` [Example 44, 4-(2-Chloro-6-fluorobenzyl)-6-(5-phenyl-1H-1,2,4-triazol-3-yl)-2H-benzo[b][1,4]thiazin-3(4H)-one] the IC50 was 1 to 10 µM.

From patent US20230124361A1, “SMALL MOLECULE STING ANTAGONISTS” (CURADEV PHARMA PVT. LTD., priority 2020, published 2023)
